{"source": "patent US11214594B2", "about": "“Antimicrobial peptide having synergistic antibacterial effect with antibiotics on multidrug resistant bacteria, and use thereof” (priority 2016, dated 2022)", "key": {"E. coli": {"system": "E. coli", "test": "MIC of antibiotic during combined treatment with antimicrobial peptide", "type": "cell-based, Escherichia coli", "conditions": "E. coli", "in_short": "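MIC values for mixed peptide plus antibiotic solutions were measured in MH medium.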"}, "MDRST 8009": {"system": "MDRST 8009", "type": "cell-based, Salmonella typhimurium", "conditions": "agent alone", "in_short": "(§1)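 Peptides were serially diluted twofold in Mueller-Hinton medium and combined 1:1 with bacterial suspensions prepared at 2×10^6 CFU. Readout was the minimal inhibitory concentration, i.e. the lowest concentration with no growth.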"}, "MDRAB 12035": {"system": "MDRAB 12035", "test": "MIC of antibiotic during combined treatment with antimicrobial peptide", "type": "cell-based, Acinetobacter baumannii", "in_short": "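Antibiotic MIC came from antibiotic dilutions added to bacteria (2×10^6 CFU/ml, MH medium) already combined with peptide serially diluted 2:1 from its own MIC. Swapping the roles of the two agents gave the peptide MIC.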"}, "MDRPA 2003": {"system": "MDRPA 2003", "type": "cell-based, Pseudomonas aeruginosa", "in_short": "as §1"}, "MDRPA 2002": {"system": "MDRPA 2002", "type": "cell-based, Pseudomonas aeruginosa", "in_short": "as §1"}, "MRSA 3114": {"system": "MRSA 3114", "type": "cell-based, Staphylococcus aureus", "conditions": "3114", "in_short": "as §1"}, "MRSA 3126": {"system": "MRSA 3126", "type": "cell-based, Staphylococcus aureus", "conditions": "3126", "in_short": "as §1"}, "S. epidermidis": {"system": "S. epidermidis", "test": "microbe, parasite or virus in culture", "type": "cell-based, Staphylococcus epidermidis", "in_short": "as §1"}, "[1]": {"conditions": "peptide treatment concentration 1 μg/ml"}, "[2]": {"conditions": "peptide treatment concentration 2 μg/ml"}, "[3]": {"conditions": "peptide treatment concentration 4 μg/ml"}, "[4]": {"conditions": "peptide treatment concentration 6 μg/ml"}, "[5]": {"conditions": "peptide treatment concentration 8 μg/ml"}, "[6]": {"conditions": "peptide treatment concentration 16 μg/ml"}, "[7]": {"conditions": "peptide treatment concentration 32 μg/ml"}, "[8]": {"conditions": "peptide treatment concentration 64 μg/ml"}}, "note": "Where a SMILES comes first, the peptide text is derived from it. [ ]: non-standard residue; d: D form.", "data": [{"smiles": "CC[C@H](C)[C@H](NC(=O)[C@H](CCCCN)NC(=O)[C@H](Cc1c[nH]c2ccccc12)NC(=O)[C@@H](N)CCCNC(=N)N)C(=O)N[C@@H](Cc1ccccc1)C(=O)N[C@@H](CCCCN)C(=O)N[C@@H](CCCCN)C(=O)N[C@H](C(=O)N[C@H](CCCCN)C(=O)N[C@@H](CCCCN)C(=O)N[C@@H](CC(C)C)C(=O)N[C@@H](CC(C)C)C(=O)N[C@@H](Cc1c[nH]cn1)C(=O)N[C@@H](CCCCN)C(=O)N[C@@H](Cc1ccccc1)C(=O)N[C@@H](CCCCN)C(=O)N[C@@H](CCCCN)C(=O)N[C@@H](Cc1ccccc1)C(N)=O)[C@@H](C)CC", "note": "[PapMA-17, RWK IFK KIk KLL HKF KKF-NH2] (H-RWKIFKKI[dK]KLLHKFKKF-NH2; N-terminus assumed)", "values": [{"measurement": "Antibiotic MIC, Erythromycin", "setting": "E. coli; erythromycin combined with peptide at 6 μg/ml", "result": 2, "unit": "µg/mL"}, {"measurement": "Antibiotic MIC, Erythromycin", "setting": "E. coli; erythromycin combined with peptide at 8 μg/ml", "result": 1, "unit": "µg/mL"}, {"measurement": "Antibiotic MIC, Erythromycin", "setting": "E. coli; erythromycin combined with peptide at 16 μg/ml", "result": 0, "unit": "µg/mL"}, {"measurement": "Antibiotic MIC, Erythromycin", "setting": "E. coli; erythromycin combined with peptide at 32 μg/ml", "result": 0, "unit": "µg/mL"}, {"measurement": "Antibiotic MIC, Erythromycin", "setting": "E. coli; erythromycin combined with peptide at 64 μg/ml", "result": 0, "unit": "µg/mL"}, {"measurement": "Antibiotic MIC, Linezolid", "setting": "E. coli; linezolid combined with peptide at 1 μg/ml", "result": ">128", "unit": "µg/mL"}, {"measurement": "Antibiotic MIC, Linezolid", "setting": "E. coli; linezolid combined with peptide at 2 μg/ml", "result": ">128", "unit": "µg/mL"}, {"measurement": "Antibiotic MIC, Linezolid", "setting": "E. coli; linezolid combined with peptide at 4 μg/ml", "result": 32, "unit": "µg/mL"}, {"measurement": "Antibiotic MIC, Linezolid", "setting": "E. coli; linezolid combined with peptide at 6 μg/ml", "result": 16, "unit": "µg/mL"}, {"measurement": "Antibiotic MIC, Linezolid", "setting": "E. coli; linezolid combined with peptide at 8 μg/ml", "result": 8, "unit": "µg/mL"}, {"measurement": "Antibiotic MIC, Linezolid", "setting": "E. coli; linezolid combined with peptide at 16 μg/ml", "result": 0, "unit": "µg/mL"}, {"measurement": "Antibiotic MIC, Linezolid", "setting": "E. coli; linezolid combined with peptide at 32 μg/ml", "result": 0, "unit": "µg/mL"}, {"measurement": "Antibiotic MIC, Linezolid", "setting": "E. coli; linezolid combined with peptide at 64 μg/ml", "result": 0, "unit": "µg/mL"}, {"measurement": "Antibiotic MIC, Vancomycin", "setting": "E. coli; vancomycin combined with peptide at 1 μg/ml", "result": ">128", "unit": "µg/mL"}, {"measurement": "Antibiotic MIC, Vancomycin", "setting": "E. coli; vancomycin combined with peptide at 2 μg/ml", "result": ">128", "unit": "µg/mL"}, {"measurement": "Antibiotic MIC, Vancomycin", "setting": "E. coli; vancomycin combined with peptide at 4 μg/ml", "result": 128, "unit": "µg/mL"}, {"measurement": "Antibiotic MIC, Vancomycin", "setting": "E. coli; vancomycin combined with peptide at 6 μg/ml", "result": 32, "unit": "µg/mL"}, {"measurement": "Antibiotic MIC, Vancomycin", "setting": "E. coli; vancomycin combined with peptide at 8 μg/ml", "result": 16, "unit": "µg/mL"}, {"measurement": "Antibiotic MIC, Vancomycin", "setting": "E. coli; vancomycin combined with peptide at 16 μg/ml", "result": 0, "unit": "µg/mL"}, {"measurement": "Antibiotic MIC, Vancomycin", "setting": "E. coli; vancomycin combined with peptide at 32 μg/ml", "result": 0, "unit": "µg/mL"}, {"measurement": "Antibiotic MIC, Vancomycin", "setting": "E. coli; vancomycin combined with peptide at 64 μg/ml", "result": 0, "unit": "µg/mL"}, {"measurement": "Minimal inhibitory concentration MIC", "setting": "MDRST 8009", "result": 64, "unit": "µg/mL"}, {"measurement": "Erythromycin MIC during combined treatment with peptide", "setting": "MDRAB 12035; [1]", "result": 32, "unit": "µg/mL"}, {"measurement": "Linezolid MIC during combined treatment with peptide", "setting": "MDRAB 12035; [1]", "result": ">128", "unit": "µg/mL"}, {"measurement": "Vancomycin MIC during combined treatment with peptide", "setting": "MDRAB 12035; [1]", "result": ">128", "unit": "µg/mL"}, {"measurement": "Erythromycin MIC during combined treatment with peptide", "setting": "MDRAB 12035; [2]", "result": 16, "unit": "µg/mL"}, {"measurement": "Linezolid MIC during combined treatment with peptide", "setting": "MDRAB 12035; [2]", "result": 128, "unit": "µg/mL"}, {"measurement": "Vancomycin MIC during combined treatment with peptide", "setting": "MDRAB 12035; [2]", "result": ">128", "unit": "µg/mL"}, {"measurement": "Erythromycin MIC during combined treatment with peptide", "setting": "MDRAB 12035; [3]", "result": 8, "unit": "µg/mL"}, {"measurement": "Linezolid MIC during combined treatment with peptide", "setting": "MDRAB 12035; [3]", "result": 32, "unit": "µg/mL"}, {"measurement": "Vancomycin MIC during combined treatment with peptide", "setting": "MDRAB 12035; [3]", "result": 128, "unit": "µg/mL"}, {"measurement": "Erythromycin MIC during combined treatment with peptide", "setting": "MDRAB 12035; [4]", "result": 4, "unit": "µg/mL"}, {"measurement": "Linezolid MIC during combined treatment with peptide", "setting": "MDRAB 12035; [4]", "result": 32, "unit": "µg/mL"}, {"measurement": "Vancomycin MIC during combined treatment with peptide", "setting": "MDRAB 12035; [4]", "result": 32, "unit": "µg/mL"}, {"measurement": "Erythromycin MIC during combined treatment with peptide", "setting": "MDRAB 12035; [5]", "result": 0.5, "unit": "µg/mL"}, {"measurement": "Linezolid MIC during combined treatment with peptide", "setting": "MDRAB 12035; [5]", "result": 16, "unit": "µg/mL"}, {"measurement": "Vancomycin MIC during combined treatment with peptide", "setting": "MDRAB 12035; [5]", "result": 16, "unit": "µg/mL"}, {"measurement": "Erythromycin MIC during combined treatment with peptide", "setting": "MDRAB 12035; [6]", "result": 0.25, "unit": "µg/mL"}, {"measurement": "Linezolid MIC during combined treatment with peptide", "setting": "MDRAB 12035; [6]", "result": 4, "unit": "µg/mL"}, {"measurement": "Vancomycin MIC during combined treatment with peptide", "setting": "MDRAB 12035; [6]", "result": 8, "unit": "µg/mL"}, {"measurement": "Erythromycin MIC during combined treatment with peptide", "setting": "MDRAB 12035; [7]", "result": 0, "unit": "µg/mL"}, {"measurement": "Linezolid MIC during combined treatment with peptide", "setting": "MDRAB 12035; [7]", "result": 0, "unit": "µg/mL"}, {"measurement": "Vancomycin MIC during combined treatment with peptide", "setting": "MDRAB 12035; [7]", "result": 0, "unit": "µg/mL"}, {"measurement": "Erythromycin MIC during combined treatment with peptide", "setting": "MDRAB 12035; [8]", "result": 0, "unit": "µg/mL"}, {"measurement": "Linezolid MIC during combined treatment with peptide", "setting": "MDRAB 12035; [8]", "result": 0, "unit": "µg/mL"}, {"measurement": "Vancomycin MIC during combined treatment with peptide", "setting": "MDRAB 12035; [8]", "result": 0, "unit": "µg/mL"}, {"measurement": "Minimal inhibitory concentration MIC", "setting": "MDRPA 2003", "result": 16, "unit": "µg/mL"}, {"measurement": "Minimal inhibitory concentration MIC", "setting": "MDRPA 2002", "result": 16, "unit": "µg/mL"}, {"measurement": "Minimal inhibitory concentration MIC", "setting": "MRSA 3114", "result": ">128", "unit": "µg/mL"}, {"measurement": "Minimal inhibitory concentration MIC", "setting": "MRSA 3126", "result": ">128", "unit": "µg/mL"}, {"measurement": "Minimal inhibitory concentration MIC", "setting": "S. epidermidis", "result": ">128", "unit": "µg/mL"}]}]}
